Results published in ChEMBL document CHEMBL1201862, “PubChem BioAssay data set” (2004).
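In this assay, cells in 96-well plates receive the compound at five concentrations for 48 hours. Endpoints are linearly interpolated between the surrounding concentrations. At the GI50, growth is halved.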 Calls of active or inactive are those of the source. No stated cut-off is given here; in the data, active = GI50 up to about 1.1 µM and inactive = higher.

Key:
Experiment in all cases: NCI anticancer screen, dose series, 48 h
HCT-15 = tested on: HCT-15
SF-268 = tested on: SF-268
IGROV-1 = tested on: IGROV-1
M14 = tested on: M14
U-251 = tested on: U-251
MDA-N = tested on: MDA-N
SNB-19 = tested on: SNB-19
UO-31 = tested on: UO-31
BT-549 = tested on: BT-549
SK-MEL-28 = tested on: SK-MEL-28
SK-MEL-2 = tested on: SK-MEL-2
MDA-MB-435 = tested on: MDA-MB-435
A498 = tested on: A498
MOLT-4 = tested on: MOLT-4
T47D = tested on: T47D
UACC-257 = tested on: UACC-257
ACHN = tested on: ACHN
A549 = tested on: A549
OVCAR-3 = tested on: OVCAR-3

Row | SMILES | GI50 (HCT-15) | GI50 (SF-268) | GI50 (IGROV-1) | GI50 (M14) | GI50 (U-251) | GI50 (MDA-N) | GI50 (SNB-19) | GI50 (UO-31) | GI50 (BT-549) | GI50 (SK-MEL-28) | GI50 (SK-MEL-2) | GI50 (MDA-MB-435) | GI50 (A498) | GI50 (MOLT-4) | GI50 (T47D) | GI50 (UACC-257) | GI50 (ACHN) | GI50 (A549) | GI50 (OVCAR-3)
1 | COc1ccc(OC)c(/N=C/c2cc(OC)c(OC)c(OC)c2)c1 | > 92.7 µM | > 100 µM (inactive) | > 82.8 µM (inactive) | > 100 µM (inactive) | > 100 µM (inactive) | 40.1 µM (inactive) | > 100 µM (inactive) | > 100 µM (inactive) | > 78.9 µM (inactive) | > 89.1 µM (inactive) | > 100 µM (inactive) | 28 µM (inactive) | > 100 µM (inactive) | 68.9 µM (inactive) | > 100 µM (inactive) | > 100 µM (inactive) | > 94.4 µM (inactive) | > 100 µM (inactive) | –
2 | CC(C)(C)[Si](C)(C)OCC1OC(n2ccc(=O)[nH]c2=O)C(O[Si](C)(C)C(C)(C)C)[C@@]12O[C@H]2C(N)=O (stereo partly drawn) | 5.38 µM | 9.2 µM (inactive) | 2.86 µM (inactive) | 11.3 µM (inactive) | 4.28 µM (inactive) | 5.37 µM (inactive) | 10.9 µM (inactive) | 7.36 µM (inactive) | 18.5 µM (inactive) | 17.6 µM (inactive) | 16.3 µM (inactive) | 4.92 µM (inactive) | > 10 µM (inactive) | 6.53 µM (inactive) | – | 26.2 µM (inactive) | 6.05 µM (inactive) | 5.75 µM (inactive) | 11.5 µM (inactive)
3 | COC(=O)C1=C(O)C(C(=O)OC)[C@]2(O)[C@H](C(=O)OC)[C@H]1C[C@@H](c1ccc(O)cc1)[C@H]2C(=O)OC (stereo partly drawn) | 26.1 µM | 30.3 µM (inactive) | 41.2 µM (inactive) | 25.4 µM (inactive) | 18.3 µM (inactive) | 20.1 µM (inactive) | 30.2 µM (inactive) | 45 µM (inactive) | 26.2 µM (inactive) | 41.8 µM (inactive) | – | 18.7 µM (inactive) | 33.3 µM (inactive) | 30.3 µM (inactive) | 23.9 µM (inactive) | 19.4 µM (inactive) | 36.4 µM (inactive) | 32.5 µM (inactive) | 11.5 µM (inactive)
4 | CC1=CC(=O)/C(=C/NC(N)=S)C(=O)O1 | 98.4 µM | > 100 µM (inactive) | > 100 µM (inactive) | > 100 µM (inactive) | > 100 µM (inactive) | > 100 µM (inactive) | 97.1 µM (inactive) | 38.5 µM (inactive) | > 100 µM (inactive) | – | 50.2 µM (inactive) | > 100 µM (inactive) | – | 53.7 µM (inactive) | – | > 100 µM (inactive) | > 100 µM (inactive) | > 100 µM (inactive) | > 100 µM (inactive)
5 | C=C1C(=O)O[C@H]2C1C[C@@H](OC(C)=O)/C(C)=C/CC[C@@]1(C)O[C@H]21 (stereo partly drawn) | 6.53 µM | – | 7.67 µM (inactive) | 0.687 µM (active) | 70.1 µM (inactive) | 2.93 µM (inactive) | 26 µM (inactive) | 4.91 µM (inactive) | 5.92 µM (inactive) | 10.7 µM (inactive) | 21.8 µM (inactive) | 22.4 µM (inactive) | – | 2 µM (inactive) | 7.1 µM (inactive) | 1.34 µM (inactive) | 4.33 µM (inactive) | 49.7 µM (inactive) | –
6 | C(=N\C12CC3CC(CC(C3)C1)C2)/C1CCCCC1 | > 100 µM | > 100 µM (inactive) | > 100 µM (inactive) | > 100 µM (inactive) | > 100 µM (inactive) | > 100 µM (inactive) | > 100 µM (inactive) | > 100 µM (inactive) | > 100 µM (inactive) | – | > 100 µM (inactive) | > 100 µM (inactive) | > 100 µM (inactive) | > 100 µM (inactive) | – | > 100 µM (inactive) | > 100 µM (inactive) | > 100 µM (inactive) | > 100 µM (inactive)
7 | CC1OC2OC3C(OCC(O)C3O)OC(=O)[C@]34CCC(C)(C)CC3C3=CCC5[C@@]6(C)C[C@H](O)[C@H](OC7OC(CO)C(O)C(O)C7OC7OC(COC(=O)CC(C)(O)CC(=O)OC1C(O)C2O)C(O)C(O)C7O)[C@@](C)(CO)C6CC[C@@]5(C)[C@]3(C)CC4 (stereo partly drawn) | 1.53 µM | 1.54 µM (inactive) | 1.24 µM (inactive) | 1.43 µM (inactive) | 1.57 µM (inactive) | 1.52 µM (inactive) | 1.68 µM (inactive) | 1.22 µM (inactive) | 1.5 µM (inactive) | 1.5 µM (inactive) | 1.59 µM (inactive) | 1.57 µM (inactive) | – | 1.32 µM (inactive) | 2.39 µM (inactive) | 1.43 µM (inactive) | 1.32 µM (inactive) | 1.32 µM (inactive) | 1.53 µM (inactive)
8 | COc1ccc(C/C=C(\C)CCO)cc1 | > 100 µM | > 100 µM (inactive) | > 100 µM (inactive) | > 100 µM (inactive) | > 100 µM (inactive) | > 100 µM (inactive) | > 100 µM (inactive) | > 100 µM (inactive) | > 100 µM (inactive) | – | > 100 µM (inactive) | > 100 µM (inactive) | – | > 100 µM (inactive) | – | > 100 µM (inactive) | > 100 µM (inactive) | > 100 µM (inactive) | > 100 µM (inactive)
9 | O=C(COc1ccc(OCC(=O)N2C(=O)CS/C2=N\c2ccccc2)cc1)N1C(=O)CS/C1=N\c1ccccc1 | 28.1 µM | 27.5 µM (inactive) | 2.38 µM (inactive) | 18.6 µM (inactive) | 31.8 µM (inactive) | 20.7 µM (inactive) | 31.6 µM (inactive) | 25.2 µM (inactive) | 18 µM (inactive) | 5.6 µM (inactive) | 25.9 µM (inactive) | 23.7 µM (inactive) | 60 µM (inactive) | 14.6 µM (inactive) | – | 23.7 µM (inactive) | 12.5 µM (inactive) | 23.6 µM (inactive) | –
10 | CCSc1nc(-c2cccs2)nc2ccc(I)cc12 | 89.9 µM | > 100 µM (inactive) | > 100 µM (inactive) | > 100 µM (inactive) | > 100 µM (inactive) | > 100 µM (inactive) | > 100 µM (inactive) | > 100 µM (inactive) | > 100 µM (inactive) | > 100 µM (inactive) | > 100 µM (inactive) | > 100 µM (inactive) | – | > 100 µM (inactive) | 1.5 µM (inactive) | > 100 µM (inactive) | > 100 µM (inactive) | > 100 µM (inactive) | 11.2 µM (inactive)
11 | O=C(C/N=C(\CN(c1ccccc1)c1ccccc1)Oc1c(Cl)cc(Cl)cc1Cl)N1c2ccccc2Sc2ccccc21 | 32.9 µM | 81.7 µM (inactive) | 28.2 µM (inactive) | 30.5 µM (inactive) | 53.5 µM (inactive) | 51.1 µM (inactive) | > 100 µM (inactive) | – | 17.3 µM (inactive) | > 100 µM (inactive) | – | 34.2 µM (inactive) | – | 30.6 µM (inactive) | 31.9 µM (inactive) | > 100 µM (inactive) | 39.9 µM (inactive) | 54.5 µM (inactive) | 46.8 µM (inactive)
12 | Cc1cc(C)nc(NC(=O)COc2ccc(Cl)cc2)c1 | > 100 µM | > 100 µM (inactive) | 75.3 µM (inactive) | > 100 µM (inactive) | > 100 µM (inactive) | > 100 µM (inactive) | > 100 µM (inactive) | – | > 100 µM (inactive) | > 100 µM (inactive) | > 100 µM (inactive) | > 100 µM (inactive) | > 100 µM (inactive) | 56.6 µM (inactive) | 48.9 µM (inactive) | > 100 µM (inactive) | > 100 µM (inactive) | > 100 µM (inactive) | > 100 µM (inactive)
13 | Cc1nc(-c2ccccc2)c(C)n2c1nc1ccccc12 | 24.2 µM | 22.1 µM (inactive) | 30.4 µM (inactive) | 20.3 µM (inactive) | 30.1 µM (inactive) | 29.9 µM (inactive) | 35.6 µM (inactive) | 14.7 µM (inactive) | 23 µM (inactive) | 39.4 µM (inactive) | 25.9 µM (inactive) | 24.4 µM (inactive) | 27.2 µM (inactive) | 27.5 µM (inactive) | 12.6 µM (inactive) | 38.1 µM (inactive) | – | 34.2 µM (inactive) | 24.6 µM (inactive)
14 | COc1cc2c3c(c1OC)C(=O)C(=O)C1=C3N(CCC1)CC2 | 27.9 µM | 13.2 µM (inactive) | 28.7 µM (inactive) | 26.4 µM (inactive) | 15.5 µM (inactive) | – | 63.4 µM (inactive) | 41 µM (inactive) | 21.8 µM (inactive) | 36.9 µM (inactive) | 48.9 µM (inactive) | 22 µM (inactive) | 30.3 µM (inactive) | 18.9 µM (inactive) | 23.2 µM (inactive) | 28.6 µM (inactive) | 42.1 µM (inactive) | 34.8 µM (inactive) | 23.6 µM (inactive)
15 | COc1ccc(CCCCl)c(C2=NCCc3ccccc32)c1 | > 100 µM | 27.5 µM (inactive) | 24.8 µM (inactive) | 71.3 µM (inactive) | 9.75 µM (inactive) | – | 14.8 µM (inactive) | 66.5 µM (inactive) | 33.3 µM (inactive) | > 100 µM (inactive) | 61.7 µM (inactive) | 26.2 µM (inactive) | > 100 µM (inactive) | 32.4 µM (inactive) | 32.9 µM (inactive) | 34.7 µM (inactive) | > 100 µM (inactive) | 44.2 µM (inactive) | 56.5 µM (inactive)
16 | N[C@H](C(=O)O)[C@@H]1CC(Cl)=NO1 [ACIVICIN] | 0.738 µM | 1.53 µM (inactive) | 0.698 µM (active) | 2.9 µM (inactive) | 2.21 µM (inactive) | 4.06 µM (inactive) | – | 6.25 µM (inactive) | 43 µM (inactive) | 4.4 µM (inactive) | 4.61 µM (inactive) | 3.9 µM (inactive) | 6.84 µM (inactive) | 2.14 µM (inactive) | 7.73 µM (inactive) | 4.8 µM (inactive) | 1.47 µM (inactive) | 0.916 µM (active) | 2.17 µM (inactive)
